The results in this text go back to article PMC2801607 (Bioorganic & medicinal chemistry letters, 2009).

Read-outs that look alike come from different tables or passages of the source. A value given as a limit tells only on which side of the number the result lay.

The target of one assay is T1, PTP1B (Homo sapiens, UniProt P18031).
T1 sequence (P18031 1-435): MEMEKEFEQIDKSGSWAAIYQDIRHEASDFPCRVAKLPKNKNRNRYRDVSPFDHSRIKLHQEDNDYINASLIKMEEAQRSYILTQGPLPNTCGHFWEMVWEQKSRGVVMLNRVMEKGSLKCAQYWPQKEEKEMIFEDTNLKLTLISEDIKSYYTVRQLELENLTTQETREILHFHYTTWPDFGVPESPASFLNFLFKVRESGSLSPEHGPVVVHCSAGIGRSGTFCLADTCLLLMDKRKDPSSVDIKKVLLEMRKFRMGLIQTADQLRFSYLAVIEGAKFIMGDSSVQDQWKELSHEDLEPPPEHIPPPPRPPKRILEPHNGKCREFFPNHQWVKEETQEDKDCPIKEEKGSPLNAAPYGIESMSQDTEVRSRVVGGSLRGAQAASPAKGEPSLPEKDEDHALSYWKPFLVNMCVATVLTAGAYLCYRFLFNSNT
Description: Selectivity panel: PTP1B inhibition. It is filed as biochemical.

The next assay deals with VHR (Homo sapiens, UniProt P51452). Description: Selectivity panel: VHR inhibition. It is filed as biochemical.
Chain of VHR (P51452 whole entry): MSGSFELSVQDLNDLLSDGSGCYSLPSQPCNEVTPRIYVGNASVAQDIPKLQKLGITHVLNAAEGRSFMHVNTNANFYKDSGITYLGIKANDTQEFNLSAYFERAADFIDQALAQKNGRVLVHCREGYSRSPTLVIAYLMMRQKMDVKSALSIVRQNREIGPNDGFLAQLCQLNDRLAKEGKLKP
For assay [1], the system named is panel of human tyrosine and dual-specificity phosphatases. It is filed as biochemical.
The target in a further assay is T2, CD45 (Homo sapiens, UniProt P08575).
T2 sequence (P08575 26-1306): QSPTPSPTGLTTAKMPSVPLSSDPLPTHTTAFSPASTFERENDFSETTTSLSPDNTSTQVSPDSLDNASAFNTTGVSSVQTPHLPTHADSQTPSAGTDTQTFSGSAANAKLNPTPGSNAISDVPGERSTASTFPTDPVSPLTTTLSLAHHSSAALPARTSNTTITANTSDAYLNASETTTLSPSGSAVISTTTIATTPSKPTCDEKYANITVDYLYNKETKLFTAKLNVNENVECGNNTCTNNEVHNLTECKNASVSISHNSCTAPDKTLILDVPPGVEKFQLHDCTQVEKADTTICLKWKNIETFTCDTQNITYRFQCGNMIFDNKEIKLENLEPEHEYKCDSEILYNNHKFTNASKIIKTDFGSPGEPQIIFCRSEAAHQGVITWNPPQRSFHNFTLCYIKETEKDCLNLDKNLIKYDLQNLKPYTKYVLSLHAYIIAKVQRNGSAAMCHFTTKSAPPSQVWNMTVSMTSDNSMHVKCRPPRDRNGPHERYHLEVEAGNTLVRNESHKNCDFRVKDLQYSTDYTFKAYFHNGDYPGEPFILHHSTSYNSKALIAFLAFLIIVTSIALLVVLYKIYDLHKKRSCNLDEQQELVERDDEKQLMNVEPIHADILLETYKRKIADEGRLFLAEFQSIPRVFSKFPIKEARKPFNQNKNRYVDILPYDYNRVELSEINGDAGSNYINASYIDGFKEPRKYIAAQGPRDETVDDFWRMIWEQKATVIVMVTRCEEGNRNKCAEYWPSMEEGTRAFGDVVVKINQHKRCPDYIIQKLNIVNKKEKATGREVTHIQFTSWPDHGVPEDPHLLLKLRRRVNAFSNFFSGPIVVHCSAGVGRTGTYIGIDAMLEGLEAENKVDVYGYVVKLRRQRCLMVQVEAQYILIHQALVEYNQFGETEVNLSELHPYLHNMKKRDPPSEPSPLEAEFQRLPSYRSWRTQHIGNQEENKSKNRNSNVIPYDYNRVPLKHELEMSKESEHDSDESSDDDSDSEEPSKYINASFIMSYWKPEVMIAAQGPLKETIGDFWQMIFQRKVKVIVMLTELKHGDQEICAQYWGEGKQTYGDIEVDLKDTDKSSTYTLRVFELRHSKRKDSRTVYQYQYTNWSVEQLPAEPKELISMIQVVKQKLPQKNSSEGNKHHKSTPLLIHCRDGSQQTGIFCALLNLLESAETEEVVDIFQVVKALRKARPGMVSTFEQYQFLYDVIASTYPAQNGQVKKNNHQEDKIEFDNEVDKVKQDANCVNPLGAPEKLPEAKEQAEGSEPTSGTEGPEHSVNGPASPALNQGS
Description: Selectivity panel: CD45 inhibition. It is filed as biochemical.

Assay [2] deals with Mtb PtpB. Description: biochemical. It is filed as biochemical, Mycobacterium tuberculosis.
For assay [3], the target named is Mtb PtpB (Mycobacterium tuberculosis, UniProt I6WXK4). Description: biochemical. It is filed as biochemical.
Chain of Mtb PtpB (Mycobacterium tuberculosis, UniProt I6WXK4) (I6WXK4 whole entry, looked up): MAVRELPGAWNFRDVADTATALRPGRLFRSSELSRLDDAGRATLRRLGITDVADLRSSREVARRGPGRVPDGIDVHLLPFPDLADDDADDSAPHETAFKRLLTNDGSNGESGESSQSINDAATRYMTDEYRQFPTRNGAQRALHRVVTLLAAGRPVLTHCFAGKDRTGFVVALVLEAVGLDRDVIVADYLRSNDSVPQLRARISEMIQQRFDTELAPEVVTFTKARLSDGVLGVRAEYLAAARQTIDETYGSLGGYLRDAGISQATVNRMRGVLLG
Assay [4] concerns the target Mycobacterium tuberculosis phosphatase PtpA (Mycobacterium tuberculosis, UniProt P9WIA1). The assay can be described thus: PtpA continuous inhibition assay with pNPP substrate. It is filed as biochemical. Particulars: PtpA dose-response curve, variable slope (GraphPad Prism).
Another assay concerns the target T3, Tc-Ptp (Homo sapiens, UniProt P17706).
T3 sequence (P17706 1-415): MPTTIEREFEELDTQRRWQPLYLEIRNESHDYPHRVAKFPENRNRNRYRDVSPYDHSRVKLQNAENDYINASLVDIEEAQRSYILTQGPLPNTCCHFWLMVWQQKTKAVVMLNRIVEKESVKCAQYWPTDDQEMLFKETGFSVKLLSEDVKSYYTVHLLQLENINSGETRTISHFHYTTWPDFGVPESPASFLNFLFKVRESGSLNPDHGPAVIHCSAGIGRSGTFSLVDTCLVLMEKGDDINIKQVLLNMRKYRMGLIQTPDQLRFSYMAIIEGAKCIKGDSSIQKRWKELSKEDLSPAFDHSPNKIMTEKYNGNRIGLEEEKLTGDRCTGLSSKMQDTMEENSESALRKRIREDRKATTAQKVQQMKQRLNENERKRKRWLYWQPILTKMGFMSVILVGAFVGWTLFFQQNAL
Description: Selectivity panel: Tc-Ptp inhibition. It is filed as biochemical.

In another assay the target is LAR (Homo sapiens, UniProt P10586). The assay can be described thus: Selectivity panel: LAR inhibition. It is filed as biochemical.
Chain of LAR (P10586 30-1907): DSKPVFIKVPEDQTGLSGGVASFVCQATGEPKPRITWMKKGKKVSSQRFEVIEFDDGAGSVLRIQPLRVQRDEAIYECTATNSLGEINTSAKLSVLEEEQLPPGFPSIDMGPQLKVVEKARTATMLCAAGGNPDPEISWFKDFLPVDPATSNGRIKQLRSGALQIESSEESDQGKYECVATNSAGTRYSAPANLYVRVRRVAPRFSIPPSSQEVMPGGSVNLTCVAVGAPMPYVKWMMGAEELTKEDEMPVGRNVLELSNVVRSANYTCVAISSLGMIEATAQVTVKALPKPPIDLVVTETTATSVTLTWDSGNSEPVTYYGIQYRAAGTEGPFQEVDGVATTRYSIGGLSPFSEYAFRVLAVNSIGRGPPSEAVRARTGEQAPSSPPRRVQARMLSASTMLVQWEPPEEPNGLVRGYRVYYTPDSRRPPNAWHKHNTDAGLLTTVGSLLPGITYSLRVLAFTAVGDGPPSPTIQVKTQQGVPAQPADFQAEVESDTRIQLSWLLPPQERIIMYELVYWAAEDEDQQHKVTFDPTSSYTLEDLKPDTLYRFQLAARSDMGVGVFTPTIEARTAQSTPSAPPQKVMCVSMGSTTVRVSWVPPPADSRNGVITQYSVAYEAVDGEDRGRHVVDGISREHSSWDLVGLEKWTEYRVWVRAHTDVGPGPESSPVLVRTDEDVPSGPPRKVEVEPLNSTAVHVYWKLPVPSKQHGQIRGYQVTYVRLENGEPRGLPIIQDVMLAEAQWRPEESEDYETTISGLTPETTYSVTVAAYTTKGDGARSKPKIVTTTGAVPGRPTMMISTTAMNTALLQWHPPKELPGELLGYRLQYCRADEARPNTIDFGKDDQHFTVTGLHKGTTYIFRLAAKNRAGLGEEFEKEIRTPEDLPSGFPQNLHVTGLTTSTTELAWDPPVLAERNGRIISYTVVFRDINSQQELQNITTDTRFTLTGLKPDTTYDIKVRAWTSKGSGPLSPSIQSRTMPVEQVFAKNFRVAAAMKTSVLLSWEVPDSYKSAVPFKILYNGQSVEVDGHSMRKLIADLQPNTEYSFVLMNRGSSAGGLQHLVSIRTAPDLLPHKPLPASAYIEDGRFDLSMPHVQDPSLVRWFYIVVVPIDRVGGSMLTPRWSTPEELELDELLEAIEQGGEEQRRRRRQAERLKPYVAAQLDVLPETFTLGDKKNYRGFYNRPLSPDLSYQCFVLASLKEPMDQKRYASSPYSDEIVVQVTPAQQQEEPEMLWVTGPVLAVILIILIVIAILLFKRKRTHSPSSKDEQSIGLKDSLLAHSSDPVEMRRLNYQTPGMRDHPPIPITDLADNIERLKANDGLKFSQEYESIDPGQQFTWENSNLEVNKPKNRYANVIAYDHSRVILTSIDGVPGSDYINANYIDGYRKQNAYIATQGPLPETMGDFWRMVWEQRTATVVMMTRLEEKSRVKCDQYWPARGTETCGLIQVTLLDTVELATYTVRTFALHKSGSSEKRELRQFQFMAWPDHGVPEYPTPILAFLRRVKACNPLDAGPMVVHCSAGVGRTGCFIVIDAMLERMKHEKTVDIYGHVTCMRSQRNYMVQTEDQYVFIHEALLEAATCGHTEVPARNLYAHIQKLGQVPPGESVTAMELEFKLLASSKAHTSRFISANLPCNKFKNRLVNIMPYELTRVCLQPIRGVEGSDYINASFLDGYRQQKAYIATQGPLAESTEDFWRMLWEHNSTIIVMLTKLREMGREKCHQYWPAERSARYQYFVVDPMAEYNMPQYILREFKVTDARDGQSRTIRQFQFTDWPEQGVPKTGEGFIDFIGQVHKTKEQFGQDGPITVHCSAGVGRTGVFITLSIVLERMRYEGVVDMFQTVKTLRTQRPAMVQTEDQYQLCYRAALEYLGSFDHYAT

Chain of Mycobacterium tuberculosis phosphatase PtpA (P9WIA1 whole entry): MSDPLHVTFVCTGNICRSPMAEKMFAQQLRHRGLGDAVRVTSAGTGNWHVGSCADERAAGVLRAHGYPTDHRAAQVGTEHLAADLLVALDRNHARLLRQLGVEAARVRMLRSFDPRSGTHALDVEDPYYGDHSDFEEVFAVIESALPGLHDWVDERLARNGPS

Broadly, the Ki is a dissociation constant, usually derived from enzyme kinetics or from competition with a known ligand. Low values mean higher affinity, high ones lower affinity. As to `O=C(Nc1cc(C(F)(F)F)c(Br)c(C(F)(F)F)c1)c1ccc(C(F)(F)P(=O)(O)O)cc1` [Compound 38], the Selectivity at PTP1B, on VHR, at CD45, in the assay on Mtb PtpB [2], at Tc-Ptp and at LAR was >70 in each case. In addition, the “Selectivity for PtpA versus panel of phosphatases” value in [1] is given as > 70 fold. The results for the Ki on Mtb PtpB [3] and at Mtb PtpB [3] (PtpB) were > 100 µM and “did not inhibit”, respectively. The Hill coefficient h in [4] is −1.0 ± 0.1.

For the compound `O=C(Nc1ccc(C(F)(F)P(=O)(O)O)cc1)Nc1cc(C(F)(F)F)cc(C(F)(F)F)c1` [Compound 43], in assay [4], the Hill coefficient h is −1.1 ± 0.2.
